We go through four compounds from patent publication US20250332159A1, “REACTIVE OXYGEN SPECIES MODULATION THROUGH BINDING OF LIGANDS AT THE NQ-BINDING SITE OF THE RESPIRATORY COMPLEX III” (University of Health Sciences & Pharmacy in St. Louis, priority 2024, published 2025).

Each structure is given as a SMILES string.

Holding throughout (type): cell-based, human
For data set [1], the system named is MCF7 cells. The data set can be described thus: MTS cytotoxicity assay. The settings on record: MCF7 cell line, 48 hours. From the text:
MCF7 cells were harvested and seeded at a cell density of 5,000 cells/well into a 96-well white plate and left overnight to adhere. […] Then, cells were washed and assayed for cytotoxicity using CellTiter 96® AQueous One Solution Cell Proliferation Assay kit (MTS) (Promega, USA), which is a colorimetric assay containing colorless tetrazolium compound that is bio-reduced by NADPH or NADH produced by dehydrogenase enzymes in metabolically active cells into a colored formazan product that can be measured at wavelength 490 nm using the Synergy Biotek plate reader. Sequential treatment was performed by incubating the overnight attached MCF7 cells with 25 μM of MH-200102 for 24 hours. Then, the cells were washed once and incubated with different concentrations of MH-101015 for another 24 hours. Then, the cells were assayed for cytotoxicity, as mentioned above.
For orientation: Tetrazolium dyes change colour on reduction, which living cells bring about.

Data set [2] deals with MCF7 cells. The experiment in a line: Total cellular ROS measurement (CellRox Green). The following applies: 25 μM, 6-8 hours. The procedure:
(§1) The MCF7 breast cancer cell line (ATCC, HTB-22) was purchased from American Type Culture Collection (ATCC, Manassas, VA) and propagated in Eagle's minimum essential medium (EMEM, ATCC) supplemented with 10% FBS (Thermo Scientific), 1% L-glutamine and 1% penicillin/streptomycin (ATCC) in a humidified incubator at 37° C. and 5% CO2. Cells were harvested and seeded into a 96-well black plate at a cell density of 25,000 cells/well and left overnight to adhere. Afterward, cells were treated with 25 μM of the 14 purchased ligands from MolPort (Riga, Latvia), positive control (i.e., doxorubicin), and negative control (i.e., DMSO) and left in the incubator for 6-8 hours. For the Qo and Qi inhibition experiments, 25 μM of myxothiazol or antimycin A (Sigma-Aldrich), respectively were also incubated. Negative controls for the inhibition experiments were composed of DMSO and either 25 μM of myxothiazol or antimycin A. Afterward, cells were washed and stained for 30 minutes at 37° C. and 5% CO2 in the dark using the CellRox Green (Invitrogen, USA) or the MitoSOX Red Assay Kit (Invitrogen, USA). Afterward, cells were washed, and total cellular ROS or mitochondrial superoxide anion levels were measured using the Synergy Biotek UV/Vis/fluorescence microplate reader with excitation/emission wavelengths of 490/525 nm or 396/610 nm, respectively. Nuclei were labeled using NucBlue Live ReadyProbes Reagent (Hoechst 33342). All experiments were performed in at least triplicate and repeated for at least three independent trials.

In data set [3] the test system is MCF7 cells. The data set can be described thus: Qo and Qi inhibition experiments: mitochondrial superoxide anion with myxothiazol or antimycin A. The following applies: for mitochondrial superoxide anion level, ligand with myxothiazol (MYX): 25 μM ligand + 25 μM MYX (Qo site inhibitor); for mitochondrial superoxide anion level, ligand with antimycin (ANT): 25 μM ligand + 25 μM ANT (Qi site inhibitor). As for the experimental part: as §1

Turning to `O=C(CSc1ccccc1)NCCCn1ccnc1` [MH-200102], the IC50 in data set [1] (Homo sapiens, single treatment, read-out: cytotoxic activity IC50) worked out at 14.6 µM. In data set [2], the “total ROS level compared to negative control (DMSO)” value was “twofold”. Besides, in data set [3], the “mitochondrial superoxide anion level, ligand with myxothiazol (MYX)” value (from here on “mitochondrial superoxide anion level … (MYX)”) is “MYX blocks the ROS up-modulating activity”.

On to `Cc1cc(I)ccc1NC(=O)c1ccc(Br)c(N)c1` [MH-04504], for which the “cytotoxic activity” value in data set [1] (0-100 μM) is recorded as “modest cytotoxic activity”. In addition, in data set [2], the “total ROS level compared to negative control (DMSO)” value was “modest total ROS upregulating activity”. In data set [3], the “mitochondrial superoxide anion level … (MYX)” value is recorded as “MYX blocks the ROS up-modulating activity”.

As for `O=C(O)c1cccc2ncccc12` [MH-01015], in data set [2], the “total ROS level compared to negative control (DMSO)” value is “total ROS down-regulating activity”. In addition, in data set [3], the “mitochondrial superoxide anion level, ligand with antimycin (ANT)” value is listed as “ANT blocks any ROS down-regulating activity” and the “mitochondrial superoxide anion level … (MYX)” value is “MYX blocks any ROS down-modulating activity”.

On to `COCc1cnc2n1CCN(C(=O)c1cscn1)[C@H]2C` [MH-131013], for which the “total ROS level compared to negative control (DMSO)” value in data set [2] was “total ROS down-regulating activity”. In data set [3], the “mitochondrial superoxide anion level, ligand with antimycin (ANT)” value is recorded as “ANT blocks any ROS down-regulating activity” and the “mitochondrial superoxide anion level … (MYX)” value was “MYX blocks any ROS down-modulating activity”.

In general, IC50 refers to the concentration at which inhibition is half-maximal.
